According to US8329413B2, “Glycoproteomic probes for fluorescent imaging of fucosylated glycans in vivo” (Academia Sinica, priority 2007, dated 2012):
Structures can show the parent of a compound that is named as a salt.

Key:
[1] = system: human alpha1-acid glycoprotein (AGP); assay: Fluorescent labeling of AGP fucosylated by FucT V, SDS/PAGE visualized by UV light; assay type: biochemical; conditions: AGP fucosylated with FucT V and GDP-fucose analog 8, 9 or 10, then labeled with 1a or 1b
Text: Briefly, fucose analogs 4 and 5 are converted to the corresponding 1-bromides, which then are substituted directly by a phosphate group. […] Therefore, TiBr4 is used instead, as described by Srivastava. The fucose-1-phosphates are converted to the corresponding GDP-fucose analogs by using 1H-tetrazole as a catalyst. The tolerability of GDP-fucose analogs 8 and 9 for human alpha-1,3-fucosyltranseferases (FucTs) II-VII is confirmed by using a standard microtiter plate assay. They are then used to elaborate the glycoconjugate substrate, human alpha1-acid glycoprotein (AGP), an acute-phase protein. As fucosylation of AGP is associated with inflammatory diseases, the degree of fucosylation of AGP could be a potential diagnostic or prognostic marker. AGP was fucosylated by using FucT V in the presence of GDP-fucose analogs 8 or 9. After gel filtration, the fucosylated AGP is labeled by using the corresponding naphthalimide 1a or 1b for 4 h at room temperature. Labeled protein is analyzed by SDS/PAGE and visualized by UV light (365 nm). […] Treated protein was separated by SDS/PAGE and visualized by UV light (Top) and Coomassie blue staining (CBB) (Middle). (Bottom) Modified GDP-fucose.
Human alpha1-acid glycoprotein (0.33 mg/mL), pretreated with alpha-fucosidase, was incubated with human alpha-1,3-fucosyltransferase V (100 mU/mL) in MOPS buffer (50 mM, pH 7.2) containing 150 mM NaCl, 10 mM MnCl2, 4 mM ATP, 0.2 mM GDP-fucose analog (8-10). After incubation at 37° C. for 8 h, additional GDP-fucose derivative (final 0.4 mM) was added and the reaction mixture was incubated at 37° C. for 12 h. […]
The fucosylated glycoconjugate was dissolved in HEPES buffer (50 mM, pH 7.6), and added to a solution containing CuSO4 (0.2 mM), 1.0 mM sodium ascorbate, the tris(triazolyl)amine ligand (20) (0.2 mM, stock in DMSO), and the appropriate naphthalimide ligation probe 1a or 1b (0.1 mM, stock in DMSO, final concentration of DMSO; 10%)). After 1 h at room temperature, the mixture was passed through NAP-5 column in water and lyophilized, and analyzed by SDS-PAGE.

Hep 3B = assay: Fluorescence microscopy imaging of intracellular fucosylated glycoconjugates; assay type: cell-based, human
Procedure: The human hepatoma cell line, Hep 3B, was incubated with acetylated azidofucose 12. After 3 days, the cells were fixed, washed with PBS, and then stained with 1a for visualization. […] The labeling reaction was performed in the presence of Cu(I) after the treatment with control fucose (A) or azidofucose 12 (B), or in the absence of Cu(I) after the treatment with control fucose (C) or azidofucose 12 (D). (Scale bar: 20 μm.)
In another aspect of the disclosure, double-staining experiments were performed to find out whether the punctate pattern observed from azidofucose marks specific cellular compartments. […] Azidofucose treated cells were fixed and labeled with probe 1a and then further treated with WGA lectin conjugated with Alexa Fluor 594, and the cells were imaged with confocal fluorescence microscope, using the appropriate filter sets. […] (Scale bar: 20 μm.)
The human hepatocellular carcinoma cell line, Hep3B (American Type Culture Collection, Manassas, Va.), was cultured in Opti-MEM (Invitrogen) supplemented with 0.1% FCS and treated with natural fucose or peracetylated azidofucose 12 (200 μM) for 3 days. The cells then were transferred to a coverslip glass slide and cultured overnight in the same medium. […] After labeling, cells were washed with PBS, and fluorescence images were obtained by using Axiovert 200M (Carl Zeiss, Inc., Thornwood, N.Y.). […]

Jurkat cells = assay: Fluorescent labeling at the cell surface by flow cytometry; assay type: cell-based
Text: In another aspect, the disclosure provides a method of labeling of azide-tagged glycoconjugates expressed on the cell surface by using the alkyne click-activated fluorogenic probe 1a. First, the effect of various Cu(I) sources on the copper-catalyzed cell-surface labeling reaction was investigated. Cu(I) is typically generated including in situ by the reduction of Cu(II) by conventional reducing agents or the direct addition of Cu(I) as a salt. To label azido tagged glycoconjugates (in this case, cellular glycans that had incorporated azidofucose), we investigated both methods by using in situ Cu(II) reduction with ascorbic acid and Tris(carboxyethyl)phosphine (TCEP) and direct addition of Cu(I), via CuBr, in CuAAC reactions. Jurkat cells were cultured in the presence of globally acetylated 6-azido-L-fucose 12 (acetylation increases cellular uptake of the sugar) so that they will incorporate the analog via the salvage pathway. After incubating for 3 days, the cells were labeled with 1a in the presence of the above listed Cu(I) sources, and the fluorescent intensities were measured by flow cytometry. […]
Jurkat cells were cultured in RPMI medium 1640 (Invitrogen, Carlsbad, Calif.), supplemented with 10% FCS and peracetylated fucose 11 or azidofucose 12 (200 μM) at a density of 2×10^5 cells per ml for 3 days, in the presence or absence of tunicamycin (5 μg/ml). […] The fluorescence intensity was detected and acquired by BD LSR II (BD Biosciences, San Jose, Calif.) and FACSDiva software (BD Biosciences). […] For detection of the fluorescent adduct with probe 1a, a 351-nm UV laser was used for excitation, and emission was detected by a 440/40 band-pass filter.
Jurkat cells were cultured in RPMI 1640 (Invitrogen, Carlsbad, Calif.) supplemented with 10% FCS and peracetylated fucose 11 or azidofucose 12 ([…]) at the density of 2×10^5 cells/mL for 3 days, in the presence or absence of tunicamycin ([…]). […] The fluorescence intensity was detected and acquired by BD LSR II (BD Biosciences, San Jose, Calif.) and FACSDiva software (BD Biosciences). […]

[2] = Rapid screening of L-amino acids as cycloaddition ligand catalysts using fluorogenic probe 1a; conditions: L-amino acid 1.0 mM, CuSO4 1.0 mM, 1a + 2a
Procedure: A fluorescence quenching technique was used to identify catalysts for the copper-catalyzed cycloaddition. […] In such a screen, the reaction between 1a and 2a is performed in microtiter plates in the presence of individual amino acids. […] (Upper) The microtiter plate was visualized under long wavelength UV lamp (365 nm). (Lower) The fluorescent intensities of each well are measured by a fluorescence plate reader.
The effect of the ligand effect on the reaction rate was visualized by holding the 96-well microtiter plate under a long wavelength UV lamp (365 nm) and analyzed with a standard fluorescence multiplate reader.
The overall volume in each vial was 250 microliters containing a solution of 1,8-naphthalimide 1a (0.5 mM), azidofucose 2a (1.0 mM), CuSO4 (1.0 mM), L-amino acid (1.0 mM) and sodium ascorbate (5.0 mM) in DMSO/water (56% DMSO). The reactions were allowed to stand at room temperature for 24 hours. The reaction mixture was diluted 60 times with 50 mM HEPES buffer (pH 7.2) and then transferred to 96-well microtiter plate, and fluorescence intensity (excitation, 365 nm; emission, […]) was determined with a Fusion plate reader (Perkin Elmer/Packard).

[3] = cited from earlier work
[4] = Stoichiometric study of L-histidine in the cycloaddition of 1a and 2a; conditions: relative to copper ion; L-histidine 0-3.0 mM, CuSO4 1.0 mM
Procedure: The overall volume in each vial was 250 microliters containing a solution of 1,8-naphthalimide 1a (0.5 mM), azidofucose 2a (1.0 mM), CUSO4 (1.0 mM), L-histidine (0-3.0 mM) and sodium ascorbate (5.0 mM) in DMSO/water (56% DMSO). The reactions were allowed to stand at room temperature for 24 hours. The catalytic activity was determined by the same method described above (FIG. 10).
In this condition, 60% of 1a was converted to the product 10 after 1 h at room temperature and the reaction was completed in less than 6 h. To confirm the effects of L-His on the reaction, we measured the time-course of the reaction by fluorescence spectrometer. Conditions: 1,8-naphthalimide 1a (0.1 mM), azidofucose 2a (1.0 mM), CuSO4 (2.0 mM), L-histidine (0 or 4.0 mM) and sodium ascorbate (100 mM) in 50 mM HEPES buffer (containing 6% DMSO). After mixing all reagents, the fluorescence intensity was measured in 5 min intervals at 37° C. by a fluorescence spectrophotometer (FIG. 11). […] Fluorescence intensities were monitored at λ ex 357 nm and λem 462 nm.

## C[C@@H]1O[C@H](OP(=O)(O)OP(=O)(O)OC[C@H]2O[C@@H](n3cnc4c(=O)[nH]c(N)nc43)[C@H](O)[C@@H]2O)[C@@H](O)[C@H](O)[C@@H]1O [Compound 10, GDP-fucose]
[1]
  fluorescent band of labeled AGP on SDS/PAGE under UV light (365 nm): No band was present

## CC(=O)OC1O[C@@H](CN=[N+]=[N-])[C@@H](OC(C)=O)[C@@H](OC(C)=O)[C@@H]1OC(C)=O (stereo partly shown) [Compound 12]
Hep 3B; Hep 3B, 3 days, fixed cells, Cu(I)
  labeling pattern after staining with 1a vs control fucose: distinct punctate-labeling pattern
Hep 3B; fixed cells labeled with probe 1a, confocal microscopy
  co-localization with Alexa Fluor 594-conjugated WGA lectin (Golgi marker): overlapped perfectly
Jurkat cells; Jurkat cells, 3 days, all three copper sources, flow cytometry
  cell fluorescence after CuAAC labeling with 1a vs natural fucose: distinct increase in fluorescence
Jurkat cells; Jurkat cells, flow cytometry
  fluorescent signal after labeling with biotinylated alkyne 13 and avidin-fluorescein vs fucose: distinct increase in fluorescent signal

## N[C@@H](Cc1c[nH]c2ccccc12)C(=O)O [tryptophan]
[2]; 24 h room temperature
  enhancement of cycloaddition rates: approximately 2 fold

## tunicamycin
Jurkat cells; Jurkat cells co-treated with azidofucose, labeled with 1a
  effect on cell surface fluorescence: suppressed cell surface fluorescence

## N[C@@H](CCC(=O)O)C(=O)O [glutamic acid]
[2]
  effect on cycloaddition reaction: obstructive to the reaction

## N[C@@H](Cc1ccc(O)cc1)C(=O)O [tyrosine]
[2]; 24 h room temperature
  enhancement of cycloaddition rates: approximately 2 fold

## Nc1ccc2c3c(cccc13)C(=O)NC2=O [4-amino-1,8-naphthalimide]
[3]; long wavelength emission, basis of probe design
  emission λmax: 540-550 nm

## C#Cc1ccc2c3c(cccc13)C(=O)N(CC)C2=O [Compound 1a, 4-Ethynyl-N-ethyl-1,8-naphthalimide]
[1]
  fluorescent band of labeled AGP on SDS/PAGE under UV light (365 nm): clear fluorescent bands

## N[C@@H](Cc1c[nH]cn1)C(=O)O [Histidine, histidine]
[4]
  amount of ligand giving maximum effect on the catalysis: 2.0 mol equivalent
[2]; 24 h room temperature
  enhancement of reaction rate compared to ligand-free conditions: about 6 times

## N[C@@H](CS)C(=O)O [cysteine]
[2]
  effect on cycloaddition reaction: obstructive to the reaction

## NCCCC[C@H](N)C(=O)O [lysine]
[2]
  effect on cycloaddition reaction: obstructive to the reaction

## C=C[C@H]1C[N@@]2CC[C@H]1C[C@H]2[C@H](O)c1ccnc2ccc(OC)cc12 [Quinine sulfate]
[3]; standard value
  quantum yield of fluorescent standard: 0.54
